In PubChem BioAssay (NCI) one finds TGI and GI50 data, which are given here for 20 molecules.

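Test compounds were applied to cells in 96-well plates for 48 hours at 5 doses. GI50 = concentration required for 50% inhibition of growth. The concentration for full growth arrest is given as TGI.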 Bounds are passed on as bounds.

Among the test systems are SK-MEL-5 melanoma; M14 melanoma; OVCAR-3 ovarian; LOX IMVI melanoma; HOP-62 NSCLC; U251 CNS; CCRF-CEM leukemia; OVCAR-5 ovarian; KM12 colon; KM20L2 colon; LXFL 529 NSCLC.
Holding throughout (assay): NCI anticancer screen, dose series, 48 h

On to `CN(C)CCNc1ccc2ncnc3c2c1C(=O)c1ccccc1-3`, for which the TGI came to 4.99 µM with SK-MEL-5 melanoma; 1.42 µM in the assay on M14 melanoma; 10.1 µM in the assay on OVCAR-3 ovarian; 10.5 µM with LOX IMVI melanoma; 3.25 µM in the assay with HOP-62 NSCLC; 17.9 µM in the assay with U251 CNS. Moreover, the TGI in the assay with CCRF-CEM leukemia was 2.89 µM; in the assay on OVCAR-5 ovarian it was 3.42 µM; in the assay on KM12 colon, 4.55 µM.
In the case of `Cc1nc(Cl)c2sc(=S)n(-c3ccc(F)cc3)c2n1`, the TGI is 10.3 µM with SK-MEL-5 melanoma; 8.38 µM in the assay on M14 melanoma; 7.02 µM in the assay on OVCAR-3 ovarian; 3.61 µM in the assay on LOX IMVI melanoma; 9.73 µM with HOP-62 NSCLC; 17.7 µM in the assay on U251 CNS. Also, the TGI was more than 100 µM in the assay on CCRF-CEM leukemia, 24.1 µM in the assay with OVCAR-5 ovarian and 25.3 µM with KM12 colon.
Regarding `CO[C@H]1[C@@H](O)[C@@H](C)O[C@@H](O[C@H]2CC[C@@]3(C)[C@H](CC[C@@H]4[C@@H]3CC[C@]3(C)[C@@H](C5=CC(=O)OC5)CC[C@]43O)C2)[C@@H]1O`, the TGI turned out to be 0.0342 µM in the assay with SK-MEL-5 melanoma; 0.0479 µM in the assay on M14 melanoma; 0.013 µM in the assay with OVCAR-3 ovarian; 0.0455 µM with LOX IMVI melanoma; 0.00943 µM with HOP-62 NSCLC; 0.0415 µM in the assay on U251 CNS. Besides, the TGI came out at 0.37 µM in the assay with CCRF-CEM leukemia, 0.0932 µM in the assay with OVCAR-5 ovarian and 0.191 µM in the assay with KM12 colon.
In the case of `CCC(CS(=O)(=O)O)[N+](=O)[O-]` (stereo not drawn), the TGI in the assay on SK-MEL-5 melanoma, in the assay on M14 melanoma, in the assay on OVCAR-3 ovarian, in the assay with LOX IMVI melanoma, with HOP-62 NSCLC and in the assay on U251 CNS was more than 100 µM each time. For the same molecule, the TGI in the assay on CCRF-CEM leukemia, with OVCAR-5 ovarian and with KM12 colon was more than 100 µM throughout.
Regarding `Nc1ccc2c(c1)C1=NNC(=O)CC1C2` (stereo not drawn), the TGI was more than 100 µM in the assay on SK-MEL-5 melanoma; more than 31.6 µM with OVCAR-3 ovarian; more than 100 µM with LOX IMVI melanoma; more than 100 µM with HOP-62 NSCLC; more than 100 µM in the assay with U251 CNS; more than 100 µM in the assay with CCRF-CEM leukemia. Also, the TGI in the assay with KM20L2 colon, in the assay with OVCAR-5 ovarian and with KM12 colon was more than 100 µM throughout.
In the case of `COc1ccc(-c2cc(-c3ccccc3)n(C3OCC(OC(C)=O)C(OC(C)=O)C3OC(C)=O)c(=S)c2C#N)cc1` (stereo not drawn), the TGI in the assay on SK-MEL-5 melanoma, with M14 melanoma, in the assay on OVCAR-3 ovarian, with LOX IMVI melanoma, in the assay with HOP-62 NSCLC and with U251 CNS was more than 100 µM throughout. In addition, the TGI in the assay on CCRF-CEM leukemia, in the assay with OVCAR-5 ovarian and in the assay on KM12 colon was more than 100 µM each time.
As for `CC1SC(c2ccccc2)N(Nc2c3ccccc3nc3ccccc23)C1=O` (stereo not drawn), the TGI with LXFL 529 NSCLC, with SK-MEL-5 melanoma, in the assay on M14 melanoma, in the assay on OVCAR-3 ovarian, with LOX IMVI melanoma and in the assay on HOP-62 NSCLC was more than 100 µM throughout. The TGI in the assay on U251 CNS, in the assay with CCRF-CEM leukemia, in the assay with KM20L2 colon, in the assay on OVCAR-5 ovarian and in the assay on KM12 colon was more than 100 µM in each case.
Consider `[N-]=[N+]=Nc1ccc(NCCCCCC(=O)ON2C(=O)CCC2=O)c([N+](=O)[O-])c1`, for which the TGI with SK-MEL-5 melanoma, with M14 melanoma, with OVCAR-3 ovarian, in the assay with LOX IMVI melanoma, in the assay on HOP-62 NSCLC and in the assay on U251 CNS was more than 100 µM in each case. The TGI in the assay with OVCAR-5 ovarian and with KM12 colon was more than 100 µM in each case.
Turning to `COc1cc(-c2n/c(=C\c3c(O)[nH]c4ccc(Cl)cc34)cc3c2=Nc2ccccc2-3)cc(OC)c1OC`, the GI50 in the assay on SK-MEL-5 melanoma was 1.83 µM; in the assay on M14 melanoma it was 1.43 µM; in the assay with OVCAR-3 ovarian, 0.417 µM; in the assay with LOX IMVI melanoma, 0.501 µM; with HOP-62 NSCLC, 0.383 µM; in the assay with CCRF-CEM leukemia it was 0.849 µM. In addition, the results for the GI50 in the assay on OVCAR-5 ovarian and in the assay with KM12 colon were 5.15 µM and 1.72 µM, respectively. For the same molecule, the TGI was 5.63 µM in the assay on SK-MEL-5 melanoma; 3.02 µM with M14 melanoma; 1.53 µM with OVCAR-3 ovarian; 1.89 µM in the assay with LOX IMVI melanoma; 0.783 µM with HOP-62 NSCLC; 37.3 µM in the assay on CCRF-CEM leukemia. The values for the TGI in the assay on OVCAR-5 ovarian and in the assay on KM12 colon were 16.9 µM and 5.61 µM, respectively.
For the molecule `NCC[Se][Se]CCN`, the TGI was determined as 18.4 µM in the assay on SK-MEL-5 melanoma; 13.3 µM in the assay with M14 melanoma; 28.3 µM in the assay with OVCAR-3 ovarian; 21.3 µM in the assay on HOP-62 NSCLC; 24.1 µM in the assay on U251 CNS; 45.6 µM in the assay with CCRF-CEM leukemia. Besides, the TGI in the assay with OVCAR-5 ovarian was found to be 17.6 µM; in the assay on KM12 colon, 20.6 µM.
For `COc1ccc(OC)c([N+](=O)[O-])c1-c1nc2sccn2c1/C=N/N=C(N)N`, the TGI in the assay on SK-MEL-5 melanoma, in the assay with M14 melanoma, in the assay on OVCAR-3 ovarian, with LOX IMVI melanoma, in the assay with HOP-62 NSCLC and in the assay on U251 CNS was more than 100 µM each time. Also, the TGI in the assay on CCRF-CEM leukemia was more than 100 µM; in the assay on OVCAR-5 ovarian, more than 100 µM; in the assay on KM12 colon, 81.5 µM.
Regarding `CC(CN(C)C)C(=O)c1ccccc1C(=O)O` (stereo not drawn), the TGI with SK-MEL-5 melanoma was more than 100 µM; in the assay on M14 melanoma, 76.6 µM; in the assay on OVCAR-3 ovarian, 54.1 µM; in the assay with LOX IMVI melanoma it was more than 100 µM; in the assay with HOP-62 NSCLC, 85.8 µM; in the assay on U251 CNS it was 38.2 µM. Moreover, the TGI with CCRF-CEM leukemia was 30.3 µM; with OVCAR-5 ovarian, more than 100 µM; with KM12 colon, more than 100 µM.
As for `O=C(CCCn1c(=O)c2sc3ccccc3c2n2nnc(-c3ccccc3)c12)NCCc1cnc[nH]1`, the GI50 in the assay with SK-MEL-5 melanoma is 1.91 µM; with OVCAR-3 ovarian, 1.52 µM; in the assay with LOX IMVI melanoma, 1.59 µM; in the assay with HOP-62 NSCLC it was 2.32 µM; in the assay with U251 CNS it was 1.06 µM. Moreover, the TGI with SK-MEL-5 melanoma stood at 4.11 µM; in the assay on OVCAR-3 ovarian, 3.18 µM; in the assay on LOX IMVI melanoma, 2.93 µM; in the assay with HOP-62 NSCLC, 5.27 µM; with U251 CNS, 2.24 µM.
Consider `O=[N+]([O-])c1ccc(N=Nc2c(O)ccc3cc(S(=O)(=O)O)ccc23)cc1`, for which the TGI in the assay with SK-MEL-5 melanoma, with M14 melanoma, in the assay with OVCAR-3 ovarian, in the assay on LOX IMVI melanoma, in the assay with HOP-62 NSCLC and in the assay on U251 CNS was more than 100 µM in each case. Besides, the TGI with CCRF-CEM leukemia, in the assay on OVCAR-5 ovarian and with KM12 colon was more than 100 µM in each case.
Regarding `CNC(C)Cc1ccccc1O` (stereo not drawn), the TGI in the assay on LXFL 529 NSCLC, with SK-MEL-5 melanoma, in the assay with M14 melanoma, in the assay with OVCAR-3 ovarian, in the assay with LOX IMVI melanoma and in the assay on HOP-62 NSCLC was more than 100 µM throughout. The TGI with U251 CNS, in the assay on CCRF-CEM leukemia, in the assay with KM20L2 colon, with OVCAR-5 ovarian and in the assay with KM12 colon was more than 100 µM throughout.
Take `CCn1nc(C)c2c1C(=O)NC(C)C(=O)N2` (stereo not drawn): the TGI with SK-MEL-5 melanoma, with M14 melanoma, with OVCAR-3 ovarian, with U251 CNS and in the assay with OVCAR-5 ovarian was more than 100 µM in each case.
Consider `CC(C)(N)CO[C@H]1C[C@H]2CC[C@@]1(C)C2(C)C`, for which the TGI is 32.8 µM with SK-MEL-5 melanoma; 31.4 µM in the assay with M14 melanoma; more than 100 µM in the assay on OVCAR-3 ovarian; 35.1 µM in the assay with LOX IMVI melanoma; 44 µM with HOP-62 NSCLC; 36.4 µM in the assay on U251 CNS. In addition, the values for the TGI in the assay with CCRF-CEM leukemia, in the assay with OVCAR-5 ovarian and with KM12 colon were 83.6 µM, 41.3 µM and 34 µM, respectively.
In the case of `COc1cc2cc[n+](C)c(Cc3ccccc3)c2cc1OC`, the TGI in the assay with LXFL 529 NSCLC, with SK-MEL-5 melanoma, in the assay on M14 melanoma, in the assay with OVCAR-3 ovarian, in the assay with LOX IMVI melanoma and in the assay on U251 CNS was more than 100 µM in each case. The TGI with CCRF-CEM leukemia, in the assay on KM20L2 colon, with OVCAR-5 ovarian and in the assay on KM12 colon was more than 100 µM in each case.
For the molecule `C=C(C)[C@@H]1CC[C@]2(C)CC[C@]3(C)[C@H](CC[C@@H]4[C@@]5(C)CC[C@H](OC(=O)c6ccccc6)C(C)(C)[C@@H]5CC[C@]43C)[C@@H]12`, the TGI with SK-MEL-5 melanoma, in the assay with M14 melanoma, in the assay with OVCAR-3 ovarian, with LOX IMVI melanoma, in the assay on HOP-62 NSCLC and in the assay with U251 CNS was more than 100 µM in each case. Further, the TGI in the assay on CCRF-CEM leukemia, in the assay on OVCAR-5 ovarian and in the assay with KM12 colon was more than 100 µM in each case.
On to `O=S1(=O)NNC(=NCc2ccc(Cl)c(Cl)c2)c2ccccc21`, for which the TGI in the assay with LXFL 529 NSCLC, in the assay with SK-MEL-5 melanoma, with M14 melanoma, in the assay on OVCAR-3 ovarian, with LOX IMVI melanoma and in the assay with U251 CNS was more than 100 µM in each case. Besides, the TGI in the assay with CCRF-CEM leukemia was 81 µM; in the assay on KM20L2 colon, more than 100 µM; with OVCAR-5 ovarian, more than 100 µM; in the assay on KM12 colon, more than 100 µM.
